Consider one compound from patent publication US11707474B2, “Methods for treating acute myeloid leukemia and related conditions” (GlycoMimetics, Inc., priority 2018, dated 2023).

One data set deals with U937. The data set can be described thus: Systemic U-937 AML mouse survival model. The class given is in vivo, NOD/SCID mouse. The protocol:
A compound of Formula (I) in combination with cytarabine/DNR chemotherapy was evaluated in the systemic U-937 AML NOD/SCID mouse survival model.
The U937 cell line was chosen because the cells express the E-selectin ligand and react with antibody HECA-452. After engraftment, mice were randomized into 4 groups (n=10/group) and treatment was initiated. The groups included a saline control group; a group administered the compound of Formula (I) at 40 mg/kg BID (i.e., 80 mg/kg per day) for 9 days, a group administered cytarabine at 300 mg/kg QD (i.e., 300 mg/kg per day) for 3 days and a single dose of DNR at 3 mg/kg; and a group administered the combined regimen of the compound of Formula (I) and chemotherapy (cytarabine and DNR).

Data set [1] has as its target T1, E-selectin (Mus musculus, UniProt Q00690).
T1 construct: fused on or other part: Ig (immunoglobulin Fc) part fused on as a handle for immobilisation
T1 sequence (Q00690 22-175 limits assumed): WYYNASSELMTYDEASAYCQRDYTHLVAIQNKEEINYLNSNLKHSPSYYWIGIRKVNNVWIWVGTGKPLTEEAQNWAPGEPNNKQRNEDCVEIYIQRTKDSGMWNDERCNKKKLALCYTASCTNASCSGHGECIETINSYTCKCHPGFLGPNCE
Briefly: E-selectin competitive binding assay (sLe^a polyacrylamide conjugate). The procedure:
(§1) The inhibition assay to screen for and characterize glycomimetic antagonists of E-selectin is a competitive binding assay, which allows the determination of IC50 and IC90 values. An E-selectin/Ig chimera was immobilized in 96 well microtiter plates by incubation at 37° C. for 2 hours. To reduce nonspecific binding, bovine serum albumin was added to each well and incubated at room temperature for 2 hours. The plate was washed and serial dilutions of the test compounds were added to the wells in the presence of conjugates of biotinylated, sLe^a polyacrylamide with streptavidin/horseradish peroxidase and incubated for 2 hours at room temperature.
(§2) To determine the amount of sLe^a bound to immobilized E-selectin after washing, the peroxidase substrate, 3, 3′, 5, 5′ tetramethylbenzidine (TMB) was added. After 3 minutes, the enzyme reaction was stopped by the addition of H3PO4, and the absorbance of light at a wavelength of 450 nm was determined. The concentration of a compound of Formula (I), required to inhibit binding by 50% was determined and reported as the IC50. The concentration required to inhibit binding by 90% was determined and reported as the IC90.

Data set [2] addresses T2, E-selectin (Homo sapiens, UniProt P16581).
T2 construct: fused on or other part: Ig (immunoglobulin Fc) part fused on as a handle for immobilisation
T2 sequence (P16581 22-175 limits assumed): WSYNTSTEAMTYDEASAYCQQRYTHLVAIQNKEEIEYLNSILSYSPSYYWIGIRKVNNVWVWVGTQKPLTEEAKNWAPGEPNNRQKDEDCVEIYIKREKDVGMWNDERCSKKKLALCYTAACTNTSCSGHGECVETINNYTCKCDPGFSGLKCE
Described as above. The procedure:
as §1, §2

For another data set, the system named is KG1 cells. Briefly: Static adhesion of KG1 cells to E-selectin coated plates. The class given is cell-based, human. The note with it: added post-binding of 5-azacytidine treated KG1 cells. The source says: These findings indicate that hypomethylating agents, including 5-azacytidine, may increase the adhesion of leukemic blasts in the bone marrow and therefore hinder the intended anti-leukemic effect. This could explain a source of chemoresistance, and potential for relapse, in patients treated with hypomethylating agents.

Data set [3] in a line: Exposure-response analysis for adverse events. Type of data set: in vivo, human. The following applies: 53 R/R and 25 newly diagnosed older AML subjects, with chemotherapy. The protocol:
For Example 15, Exposure-Response (“E-R”) analysis evaluating adverse events against PK metrics was conducted. The sample population for Example 15 included 53 subjects with relapsed/refractory (R/R) AML and 25 older subjects (aged 60 years or older) with newly diagnosed AML. R/R AML subjects were administered MEC chemotherapy and 5, 10, and 20 mg/kg of a compound of Formula (I) BID (i.e., 10, 20, and 40 mg/kg per day). The older subjects (aged 60 years or older) with newly diagnosed AML were administered 7+3 chemotherapy and 10 mg/kg of a compound of Formula (I) BID (i.e., 20 mg/kg per day).
Exposure metrics for the adverse events (“AE”) analysis were generated using the same Pop-PK model described in Example 14. […] Cumulative AUC was determined through each study day. For each metric/day combination, percentile rankings and normalized values were determined. For example, the median of Day 6 AUC values was determined, and normalized values were obtained by dividing each value by the median. In addition, these Day 6 AUC values were ranked, and then multiplied by 100% divided by the number of values to obtain a percentile value.
Adverse events (“AEs”) were classified according the Common Terminology Criteria for Adverse Events (“CTCAE”). […]

The nature of data set [4]: Pharmacokinetics of weight-based doses in AML subjects. The class given is in vivo, human. The following applies: for AUC, Mean / AUC, Median: dose 13 to dose 15; for Cmax: human, plasma, intravenous. The protocol:
Three cohorts of 6-7 human subjects with acute myeloid leukemia (AML) each received a total of 15 infusions of 5, 10, or 20 mg/kg/dose over 8 days with a nominal infusion duration of 20 minutes. The first dose of a compound of Formula (I), was administered 24 hours±1 hour prior to the first dose of MEC (mitoxantrone, etoposide, and cytarabine) induction chemotherapy as a sentinel dose to evaluate the effect of the compound of Formula (I) alone, and then every 12 hours±1 hour on chemotherapy days, starting 2 hours prior to chemotherapy. […] MEC chemotherapy was administered on Days 2-6. Samples were obtained pre-dose, on Day 1, Day 3, Day 8, Day 9, and Day 10 (where Day 1 refers to the first day of dosing with a compound of Formula (I)).

Structures are written as SMILES. Values joined by “and” are separate entries in the source; they are usually repeats but may differ in a detail not shown here. Equal values may be shown once. Read-outs that look alike come from different tables or passages of the source.

Broadly, the IC50 is the point on the concentration scale where inhibition reaches its midpoint. High values mean weaker potency, low ones greater potency. As a reminder, the IC90 is the concentration needed for an effect of 90%. One may read the Cmax as the highest concentration seen after dosing. As for `CC[C@@H]1CC(C(=O)NCCNC(=O)CCOCCOCCOCCOCCOCCOCCOCCOCCOCCOCCOCCOC)C[C@@H](O[C@@H]2O[C@@H](CO)[C@H](O)C(O[C@@H](CC3CCCCC3)C(=O)O)C2NC(C)=O)C1OC1O[C@@H](C)C(O)[C@H](O)[C@@H]1O` (stereo partly shown) [compound of Formula (I)], in the data set with U937 (40 mg/kg BID 9 days alone), the survival entry was “does not extend survival beyond saline control”. In the data set on U937 (40 mg/kg BID 9 days combined with cytarabine/DNR), the “median survival time (MST)” value is on record as “greater than 120 days”. For the same compound, the “animals surviving to the end of the study” value in the data set with U937 (40 mg/kg BID 9 days combined with cytarabine/DNR, n=10/group) is “five”. In addition, the IC50 on E-selectin [1] is 2450 nM and 2490 nM; at E-selectin [2], 2440 nM and 2400 nM. Further, the concentration for an effect of 90% (IC90) at E-selectin [1] is 3.7 µM and 4.91 µg/mL; at E-selectin [2] it was 7535 ng/mL; at E-selectin [2] (read-out: IC90) it was 7.54 µg/mL and 5.68 µM. The compound further gave an uncoupling of adhesion with KG1 cells of around 90%. Besides, the “adverse events vs exposure (AUC, cumulative AUC, Cmax)” value in data set [3] is given as “no strong tendency toward increased AEs, nor increased severity of AEs with exposure”. Also, the “AUC, Mean” value in data set [4] (5 mg/kg/dose) is 5.21 µg·days/mL; in data set [4] (10 mg/kg/dose), 9.63 µg·days/mL; in data set [4] (20 mg/kg/dose), 20.43 µg·days/mL. In addition, the results for the “AUC, Median” value in data set [4] (5 mg/kg/dose), in data set [4] (10 mg/kg/dose) and in data set [4] (20 mg/kg/dose) were 4.83 µg·days/mL, 9.63 µg·days/mL and 19.33 µg·days/mL, respectively. For the same compound, the Cmax came to 38.5 µg/mL in data set [4] (5 mg/kg, 5 mg/kg/dose, read-out: Cmax, Mean); 36.3 µg/mL in data set [4] (5 mg/kg, 5 mg/kg/dose, read-out: Cmax, Median); 79.6 µg/mL in data set [4] (10 mg/kg, 10 mg/kg/dose, read-out: Cmax, Mean); 76.2 µg/mL in data set [4] (10 mg/kg, 10 mg/kg/dose, read-out: Cmax, Median); 167 µg/mL in data set [4] (20 mg/kg, 20 mg/kg/dose, read-out: Cmax, Mean); 153 µg/mL in data set [4] (20 mg/kg, 20 mg/kg/dose, read-out: Cmax, Median).
